Results on three compounds are retold here after patent US20100240764A1, “Use of S-Clenbuterol” (EUCRO EUROPEAN CONTRACT RESEARCH GMBH & CO. KG, priority 2005, published 2010).

The conditions of assay [1]: literature, Eur J Pharmacol 446 (2002) 25-36; cited from earlier work.
The subject of assay [2] is hippocampal neurons. The assay can be described thus: Staurosporine (STS)-induced apoptosis in cultured hippocampal neurons, Hoechst 33258 nuclear staining. It counts as cell-based, rat. The settings on record: 10 μM enantiomer added before STS 200 nM; apoptotic nuclei quantified 18 h after exposure; vs STS-treated controls (FIG. 1). The procedure: (§1) Neuronal cultures. Mixed primary cultures of hippocampal neurons and glial cells were prepared from neonatal Fischer 344 rats as described in Brain Research 1717 (1996) 44-54. Experiments were carried out after 10 days in culture. The NMDA antagonist memantine (Merz, Germany) and clenbuterol were applied 1 h or 5 h before exposure of the cells to glutamate (500 μmol/L, 1 h), respectively. For induction of excitotoxic cell death, medium (conditioned medium) was collected and glutamate-containing medium was added, and then exchanged again after 1 h by the conditioned ? enantiomeres were present in the culture medium also during and after exposure to glutamate. For induction of apoptosis, neurons were exposed to staurosporine (STS, 200 nmol/L, Sigma) […]. Cell death was determined by the trypan blue exclusion method or after staining the nuclei with the DNA-binding fluorochrom Hoechst 33258 as in Brain Research 1717 (1996) 44-54 and in STROKE 2004, 35: 1197-1202.
The protective effects of the clenbuterol enantiomers in cultured neurons exposed to STS (200 nM) which induced apoptosis or glutamate (500 μM) which induced ecitotoxic cell death with morphological features of necrosis. The Clenbuterol enantiomeres were added to the culture medium at a concentration of 10 μM h before the onset of apoptotic or excitotoxic stress. […]

Assay [3] relates to hippocampal neurons. Description: Glutamate-induced excitotoxic cell death in cultured hippocampal neurons, trypan blue exclusion. The following applies: 10 μM, glutamate 500 μM for 1 h; for protection of neurons against glutamate excitotoxic insult: trypan blue-stained cultures 18 h after exposure (FIG. 2). It counts as cell-based, rat. The procedure: as §1
The protective effects of the clenbuterol enantiomers in cultured neurons exposed to STS (200 nM) which induced apoptosis or glutamate (500 μM) which induced ecitotoxic cell death with morphological features of necrosis. The Clenbuterol enantiomeres were added to the culture medium at a concentration of 10 μM h before the onset of apoptotic or excitotoxic stress. […] Further, it was investigated whether such differences in the protective effect of the clenbuterol enantiomers could also be observed in a paradigm of necrotic cell death induced by glutamate.

The next assay deals with rat uterus. The following applies: Clenbuterol isomers; literature; cited from earlier work.
For assay [4] the following is noted: literature, Eur J Pharmacol 117 (1985) 127-129; cited from earlier work.

Molecules are shown by their SMILES.

With `CC(C)(C)NCC(O)c1cc(Cl)c(N)c(Cl)c1` (racemic) [racemic Clenbuterol, Clenbuterol], the “effects in preclinical models of neuroprotection” value in assay [1] was “positive effects”.
For `CC(C)(C)NC[C@H](O)c1cc(Cl)c(N)c(Cl)c1` [R-clenbuterol], the “STS-induced neuronal cell death (apoptotic nuclei)” value in the assay with hippocampal neurons [2] was “did not affect STS-induced apoptosis”. In the assay with hippocampal neurons [3], the “protection of neurons against glutamate excitotoxic insult” value was “did not show any protective effect”. Further, the “relaxant response in rat uterus” value in the assay with rat uterus was “shows the effect”. Moreover, the “activity in psychopharmacological tests (CNS-effect)” value in assay [4] is given as “based only on the (−)-enantiomer”.
For `CC(C)(C)NC[C@@H](O)c1cc(Cl)c(N)c(Cl)c1` [S-Clenbuterol], the “STS-induced neuronal cell death (apoptotic nuclei)” value with hippocampal neurons [2] is “significantly attenuated STS-induced neuronal cell death”. Also, in the assay with hippocampal neurons [3] (18 h after exposure), the “number of trypan blue positive neurons” value is “reduced the number of trypan blue positive neurons to control levels”. The “protection of neurons against glutamate excitotoxic insult” value in the assay with hippocampal neurons [3] is given as “significantly protected the neurons against the excitotoxic insult”. In addition, the “relaxant response in rat uterus” value in the assay on rat uterus is “not involved in the effects”. For the same compound, the “activity in psychopharmacological tests (CNS-effect)” value in assay [4] is listed as “did not show any CNS-effect”.
